According to US20160340656A1, “PEPTIDES DERIVED FROM GSE 24.2 FOR TREATING DISEASES CAUSED BY OXIDATIVE STRESS AND DAMAGE TO DNA” (CONSEJO SUPERIOR DE INVESTIGACIONES CIENTÍFICAS (CSIC), priority 2013, published 2016):
“Also recorded” adds a separate entry of the source.

How the values were obtained:
F9A353V cells = assay: Repair of damage to DNA: Western blot of histone H2AX (Ser139) in F9A353V cells transfected with synthetic peptides; type: cell-based
Protocol: FIG. 6. Western blot of F9 and F9A353V cells after 24 hours of transfection with chemically synthesized peptides derived from GSE24.2. The peptides indicated on each line of gel were transfected (15 μg of each peptide) on a 30 mm plate. After separating the protein extracts on polyacrylamide gels and transferring them to a nitrocellulose membrane, the membrane was hybridised with an antibody against histone H2AX (Ser139) and then with an antibody against α-tubulin as a loading control.
FIG. 7. Quantification of Western blot of FIG. 6. The signal obtained with histone H2AX (Ser139) was corrected with the signal of α-tubulin considering the signal obtained with the F9 cells transfected with beta-galactosidase (as control) as 1, using the NIH-Image program.
FIG. 8. Western blot of F9 and F9A353V cells after 24 of transfection with the GSE4 peptide at increasing concentrations. […]
FIG. 9. Quantification of the Western blot of FIG. 8. […]
In order to optimise the operating conditions of peptide GSE4, different amounts of peptide GSE4 were transfected into F9A353V cells and the amount of damage to DNA was determined using a specific antibody as was performed in FIG. 6 (FIG. 8). After quantification of the Western blot (FIG. 9), maximum inhibition of damage to DNA was obtained by transfecting 8 μg of peptide GSE4.

HeLa cells = assay: Internalisation of fluorescein-labelled peptides, confocal fluorescence microscopy; type: cell-based
Protocol: (§1) FIG. 21. Transfection of peptides GSE4 and GSE4NLS1 in HeLa cells. Peptides GSE4 and GSE4NLS1 (SEQ ID No. 7) labelled with fluorescein and obtained by chemical synthesis were transfected into HeLa cells using the Proteojuice reagent and viewed in a confocal fluorescence microscope at 9, 24 and 48 hours after transfection.
as §1, with “22. Internalisation” for “21. Transfection”, “added to the culture medium of” for “transfected into”, “cells” for “cells using the Proteojuice reagent”
Given the ability of sequence NLS1 to contribute to the activity of GSE24.2, a synthetic peptide into which this sequence was placed in the 3′ region of peptide GSE4 was constructed as this was the peptide for which the greatest telomerase activation was obtained. The peptides obtained by chemical synthesis were labelled with fluorescein to facilitate their visualisation in a fluorescence microscope. Two experiments were performed in parallel, in one the peptides were transfected using Proteojuice reagent and in the other they were added directly to the culture medium. […] An important difference observed was that when the peptides were added directly to the culture medium, the peptide entered into a higher number of cells than when Proteojuice was used. The reagent provided greater effectiveness for internalisation but into a small number of cells.

GFINLDKPSNP [GSE4]
amount of peptide transfected giving maximum inhibition of damage to DNA (F9A353V cells; increasing amounts of peptide): 8 µg | repair of damage to DNA (phosphorylation of histone H2AX) (F9A353V cells; peptides lipofected with Proteojuice, 24 hours): substantially improved the activity of the full domain; also recorded: smallest sized peptide able to repair the damage to DNA | entry into cells (HeLa cells; peptide simply added to the culture medium): entered the cells | entry into cells (HeLa cells; transfected using Proteojuice reagent): entered the cells
